Laboratory results published in ChEMBL document CHEMBL4483862, “Open-source discovery of chemical leads for next-generation chemoprotective antimalarials” (2018).
pIC50: −log10 of the molar value.

Tested on: Plasmodium berghei
Experiment: Luciferase/luciferin-expressing antifolate-resistant parasites were used to infect a culture of HepG2 cells that were pre-incubated with compounds. Infected hepatocytes emit light due to the luciferase reaction. Assay results are presented as the percent inhibition of light emission compared to control. […]
Assay type: functional
Conditions: sporozoite; for IC90: read-out: LUCIFERASE INFECTION ASSAY - IC90
[1] = PBLUC_HILL_SLOPE 3.35, PBLUC_R_SQUARED 0.119, read-out: LUCIFERASE INFECTION ASSAY - IC50

Row | Compound | IC90 [µM] | other results
1 | CCc1c(C)nc2c(-c3ccccc3)c(C)nn2c1Nc1ccc(NC(C)=O)cc1 | > 8.26 | pIC50 (PBLUC_HILL_SLOPE 3.43, PBLUC_R_SQUARED 0.461, read-out: LUCIFERASE INFECTION ASSAY - IC50): 5.26
2 | Cc1cc(C2N=C(N)Nc3nc4ccccc4n32)c(C)n1-c1ccccc1Cl (stereo not given) | 7.59 | pIC50 (PBLUC_HILL_SLOPE 3.33, 1.30, PBLUC_R_SQUARED 0.920, 0.833, read-out: LUCIFERASE INFECTION ASSAY - IC50): 5.41
3 | COc1ccc(CC(N)c2csc(NC(=O)Nc3cccc(C(F)(F)F)c3)n2)cc1 (stereo not given) | > 7.56 | pIC50 (PBLUC_HILL_SLOPE 3.34, PBLUC_R_SQUARED 0.752, read-out: LUCIFERASE INFECTION ASSAY - IC50): 5.26
4 | Cc1nn(-c2ccccc2)c(Cl)c1/C=N/Nc1nc2ccccc2[nH]1 | > 10 | pIC50 [1]: 5.14
5 | CN(/N=C/c1ccc(Cl)cc1)c1ncc(Cl)cc1C(F)(F)F | > 9.48 | pIC50 (PBLUC_HILL_SLOPE 3.36, PBLUC_R_SQUARED 0.0281, read-out: LUCIFERASE INFECTION ASSAY - IC50): 5.15
6 | Oc1cccc(-c2cnc3cnc(/C=C/c4ccccc4)cn23)c1 | > 10.5 | pIC50 (PBLUC_HILL_SLOPE 3.41, PBLUC_R_SQUARED 0.351, read-out: LUCIFERASE INFECTION ASSAY - IC50): 5.15
7 | O=C(NNC(=O)c1cccn1-c1ccc(F)cc1)Nc1ccc(Cl)c(Cl)c1 | 7.62 | pIC50 (PBLUC_HILL_SLOPE 3.35, PBLUC_R_SQUARED 0.178, read-out: LUCIFERASE INFECTION ASSAY - IC50): 5.40
8 | CN(C)c1cccc(-c2cnc3cnc(-c4cccnc4)cn23)c1 | > 10.5 | pIC50 (PBLUC_HILL_SLOPE 3.32, PBLUC_R_SQUARED 0.395, read-out: LUCIFERASE INFECTION ASSAY - IC50): 5.07
9 | O=C(Nc1ccc(C(=O)N(CCO)Cc2cccc(OCc3ccccc3Cl)c2)cc1)C1CC1 | > 10 | pIC50 (PBLUC_HILL_SLOPE 3.35, PBLUC_R_SQUARED 0.615, read-out: LUCIFERASE INFECTION ASSAY - IC50): 5.16
10 | CCc1ccc(-c2nc(C(=O)Nn3cn[nH]c3=S)cs2)cc1 | > 10 | pIC50 (PBLUC_HILL_SLOPE 3.31, PBLUC_R_SQUARED 0.251, read-out: LUCIFERASE INFECTION ASSAY - IC50): 5.26
11 | Nc1c(NC2CCCCC2)cc(NCCO)c2c1C(=O)c1ccccc1C2=O | > 8.7 | pIC50 (PBLUC_HILL_SLOPE 3.41, PBLUC_R_SQUARED 0.438, read-out: LUCIFERASE INFECTION ASSAY - IC50): < 5.06
12 | Nc1ncc(-c2ccc(F)cc2F)cc1-c1cccc(C(F)(F)F)c1 | > 9.42 | pIC50 (PBLUC_HILL_SLOPE 3.4, PBLUC_R_SQUARED 0.237, read-out: LUCIFERASE INFECTION ASSAY - IC50): 5.12
13 | CC(C)c1ccc(NC(=O)c2ccc(N(C)C)c([N+](=O)[O-])c2)cc1 | 8.31 | pIC50 (PBLUC_HILL_SLOPE 3.41, PBLUC_R_SQUARED 0.504, read-out: LUCIFERASE INFECTION ASSAY - IC50): 5.36
14 | Cc1onc(-c2c(Cl)cccc2Cl)c1C(=O)ONC(=N)c1c(Cl)cccc1Cl | > 7.19 | pIC50 (PBLUC_HILL_SLOPE 3.4, PBLUC_R_SQUARED 0.373, read-out: LUCIFERASE INFECTION ASSAY - IC50): 5.25
15 | O=C(Nc1ccc[n+](Cc2ccccc2)c1)c1ccccc1-c1ccc(C(F)(F)F)cc1 | > 10 | pIC50 (PBLUC_HILL_SLOPE 3.37, PBLUC_R_SQUARED 0.68, read-out: LUCIFERASE INFECTION ASSAY - IC50): 5.24
16 | CN1CCN(c2ccc(NC(=O)c3c[nH]c4ccc(Br)cc34)cn2)CC1 | > 10 | pIC50 (PBLUC_HILL_SLOPE 3.31, PBLUC_R_SQUARED 0.596, read-out: LUCIFERASE INFECTION ASSAY - IC50): 5.09
17 | COc1ccc(-c2cnc3cnc(-c4ccc(N5CCN(C)CC5)nc4)cn23)cc1 | > 8.24 | pIC50 (PBLUC_HILL_SLOPE 3.44, PBLUC_R_SQUARED 0.167, read-out: LUCIFERASE INFECTION ASSAY - IC50): 5.20
18 | CCOCCCn1c(SCC(=O)N2CCCC3CCCCC32)nc2sc(C)c(C)c2c1=O (stereo not given) | > 10 | pIC50 (PBLUC_HILL_SLOPE 3.41, PBLUC_R_SQUARED 0.294, read-out: LUCIFERASE INFECTION ASSAY - IC50): 5.15
19 | Cn1cc(-c2cn3c(-c4ccc(C(C)(C)C)cc4)cnc3cn2)cn1 | > 9.96 | pIC50 (PBLUC_HILL_SLOPE 3.33, PBLUC_R_SQUARED 0.519, read-out: LUCIFERASE INFECTION ASSAY - IC50): 5.17
20 | CN(C)CCNc1nc2sc3c(c2c(=O)n1Cc1ccco1)CCCCC3 | 8.43 | pIC50 (PBLUC_HILL_SLOPE 3.33, PBLUC_R_SQUARED 0.165, read-out: LUCIFERASE INFECTION ASSAY - IC50): 5.36

Row | Compound | IC90 [µM] | other results
21 | FC(F)(F)Oc1cccc(-c2ccc3ncc(-c4cccnc4)n3n2)c1 | 3.34 | pIC50 (PBLUC_HILL_SLOPE 3.42, PBLUC_R_SQUARED 0.748, read-out: LUCIFERASE INFECTION ASSAY - IC50): 5.75
22 | CCN1CCC(N(C)c2ccc(S(=O)(=O)N3CCCCCC3)cc2[N+](=O)[O-])CC1 | > 10 | pIC50 (PBLUC_HILL_SLOPE 3.35, PBLUC_R_SQUARED 0.446, read-out: LUCIFERASE INFECTION ASSAY - IC50): 5.20
23 | COc1cccc(/C=C/C(=O)Oc2c(Cl)cc(Cl)c3ccc(C)nc23)c1OC | 9.03 | pIC50 (PBLUC_HILL_SLOPE 3.32, PBLUC_R_SQUARED 0.808, read-out: LUCIFERASE INFECTION ASSAY - IC50): 5.33
24 | Oc1ccc(Nc2nccc3[nH]c(-c4cccc(F)c4)cc23)cc1 | 8.12 | pIC50 (PBLUC_HILL_SLOPE 3.41, PBLUC_R_SQUARED 0.615, read-out: LUCIFERASE INFECTION ASSAY - IC50): 5.37
25 | CS(=O)(=O)c1ccc(Nc2cc3[nH]c(-c4cccc(C(F)(F)F)c4)cc3cn2)cc1 | 9.79 | pIC50 (PBLUC_HILL_SLOPE 3.36, PBLUC_R_SQUARED 0.528, read-out: LUCIFERASE INFECTION ASSAY - IC50): 5.29
26 | CNc1nn(C(=O)Nc2cccc(C(F)(F)F)c2)cc1[N+](=O)[O-] | > 10 | pIC50 (PBLUC_HILL_SLOPE 3.4, PBLUC_R_SQUARED 0.508, read-out: LUCIFERASE INFECTION ASSAY - IC50): 5.25
27 | COc1cc(C(=O)OC(C)c2ccc(F)cc2)cc(OC)c1OC (stereo not given) | > 10 | pIC50 (PBLUC_HILL_SLOPE 3.41, PBLUC_R_SQUARED 0.0259, read-out: LUCIFERASE INFECTION ASSAY - IC50): 5.03
28 | FC(F)(F)c1ccc(/C=N/Nc2ccc(C(F)(F)F)cc2)cc1 | > 9.93 | pIC50 (PBLUC_HILL_SLOPE 3.36, PBLUC_R_SQUARED 0.386, read-out: LUCIFERASE INFECTION ASSAY - IC50): 5.24
29 | COCCOc1ccc(C(F)(F)F)cc1NC(=O)Nc1ccc(Cl)c(Cl)c1 | 6.68 | pIC50 (PBLUC_HILL_SLOPE 3.42, PBLUC_R_SQUARED 0.295, read-out: LUCIFERASE INFECTION ASSAY - IC50): 5.45
30 | O=C(Nc1ccc(Cl)c(C(F)(F)F)c1)C(c1ccccc1)N1CC=C(c2ccccc2)CC1 (stereo not given) | > 10 | pIC50 [1]: 5.14
31 | CN1CCN(c2ccc(-c3cn4c(-c5ccccc5)cnc4cn3)cn2)CC1 | 7.71 | pIC50 (PBLUC_HILL_SLOPE 3.35, PBLUC_R_SQUARED 0.57, read-out: LUCIFERASE INFECTION ASSAY - IC50): 5.40
32 | CCCCN(CC(=O)N1CCCC(c2nc3ccccc3s2)C1)Cc1nc(=O)c2ccccc2[nH]1 (stereo not given) | > 10 | pIC50 (PBLUC_HILL_SLOPE 3.32, PBLUC_R_SQUARED 0.747, read-out: LUCIFERASE INFECTION ASSAY - IC50): 5.20
33 | O=S(=O)(NCc1cc(Cl)cc(Cl)c1)c1cc(C(F)(F)F)cc(C(F)(F)F)c1 | > 7.3 | pIC50 (PBLUC_HILL_SLOPE 3.39, PBLUC_R_SQUARED 0.218, read-out: LUCIFERASE INFECTION ASSAY - IC50): 5.17
34 | COc1cccc(NC(=O)Nc2ccc(N3CCN(c4ncccc4C(F)(F)F)CC3)nc2)c1 | > 6.98 | pIC50 (PBLUC_HILL_SLOPE 3.4, PBLUC_R_SQUARED 0.647, read-out: LUCIFERASE INFECTION ASSAY - IC50): 5.24
35 | Cc1cc(-c2nc(=O)c3ccccc3[nH]2)c(C)n1CC(C)C | 4.1 | pIC50 (PBLUC_HILL_SLOPE 3.39, PBLUC_R_SQUARED 0.354, read-out: LUCIFERASE INFECTION ASSAY - IC50): 5.67
36 | COc1ccc(NC(C)=O)cc1Nc1ncnc2scc(-c3ccccc3)c12 | > 10 | pIC50 (PBLUC_HILL_SLOPE 3.37, PBLUC_R_SQUARED 0.17, read-out: LUCIFERASE INFECTION ASSAY - IC50): 5.04
37 | COc1ccc(Nc2nccc3c2cc(-c2ccccc2OC)n3C)c(OC)c1 | 8.07 | pIC50 (PBLUC_HILL_SLOPE 3.43, PBLUC_R_SQUARED 0.599, read-out: LUCIFERASE INFECTION ASSAY - IC50): 5.37
38 | Cc1nn2c(=O)cc(C(C)C)[nH]c2c1-c1ccccc1 | 10.5 | pIC50 (PBLUC_HILL_SLOPE 3.42, PBLUC_R_SQUARED 0.611, read-out: LUCIFERASE INFECTION ASSAY - IC50): 5.26
39 | COCCn1c(C)cc(C(=O)CN2C(=O)NC(C)(c3ccc(C(C)(C)C)cc3)C2=O)c1C (stereo not given) | > 10 | pIC50 (PBLUC_HILL_SLOPE 3.36, PBLUC_R_SQUARED 0.275, read-out: LUCIFERASE INFECTION ASSAY - IC50): 5.21
40 | Cc1nc(Oc2ccc3ccc(=O)oc3c2)c2c3c(sc2n1)CCCCC3 | > 10 | pIC50 (PBLUC_HILL_SLOPE 3.34, 13.2, PBLUC_R_SQUARED 0.778, 0.263, read-out: LUCIFERASE INFECTION ASSAY - IC50): 5.11
